Measurements as given in ChEMBL document CHEMBL1148585, “Classification of chemical compounds by protein-compound docking for use in designing a focused library” (J Med Chem, 2006).

Molecular target: T1, Macrophage migration inhibitory factor (Homo sapiens, UniProt P14174)
T1 sequence (P14174 whole entry): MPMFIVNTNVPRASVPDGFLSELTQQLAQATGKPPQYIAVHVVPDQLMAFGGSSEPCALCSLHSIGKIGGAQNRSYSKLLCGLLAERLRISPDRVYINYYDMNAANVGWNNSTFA
Test: Inhibition of MIF

Structure (SMILES) | IC50 [µM]
CC(C)C(=O)Nc1cc2c(cc1CCc1cccc3ccccc13)C(C(=O)O)CC2c1cccs1 (stereo not given) | 8
O=C(O)CC(c1ccc(Cl)cc1)(c1ccc(Cl)cc1)c1ccc(Cl)cc1 | 8.1
O=C(O)C1Nc2ccc(Br)cc2C2C=CCC12 (stereo not given) | 3.4
O=C(c1cnc(CCCC2CCCCC2)o1)N1CCN(Cc2ccccc2)CC1 | 30
Oc1ccc(CSc2ccncc2)cc1O | 0.4
